Source: ChEMBL document CHEMBL1201862, “PubChem BioAssay data set” (2004)
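Dose response: 5 concentrations. Exposure: 48 h. Format: 96-well plates. Endpoint: linear interpolation; highest concentration if not reached. Abbreviation: GI50, concentration required for 50% inhibition of growth.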 The source made the active and inactive calls. Rule as the data show it: active = GI50 up to about 1.1 µM and inactive = higher.

How the values were obtained:
Test in all cases: NCI-60 cell line screen, 48 h
[1] = test system: NCI-H23
[2] = test system: SW-620
[3] = test system: MDA-N
[4] = test system: HCT-116
[5] = test system: OVCAR-8
[6] = test system: NCI-H522
[7] = test system: NCI/ADR-RES
[8] = test system: TK-10
[9] = test system: CAKI-1
[10] = test system: SF-295
[11] = test system: SK-MEL-2
[12] = test system: MDA-MB-435
[13] = test system: HOP-92
[14] = test system: MDA-MB-231
[15] = test system: K562
[16] = test system: HCC 2998
[17] = test system: PC-3
[18] = test system: A549
[19] = test system: SR
[20] = test system: KM12
[21] = test system: MCF7
[22] = test system: SN12C
[23] = test system: UACC-62
[24] = test system: CCRF-CEM
[25] = test system: SK-MEL-5
[26] = test system: SK-OV-3
[27] = test system: BT-549
[28] = test system: DU-145
[29] = test system: 786-0
[30] = test system: Hs-578T
[31] = test system: HOP-62
[32] = test system: MOLT-4
[33] = test system: ACHN
[34] = test system: UO-31
[35] = test system: COLO 205
[36] = test system: U-251
[37] = test system: NCI-H460
[38] = test system: EKVX
[39] = test system: LOX IMVI
[40] = test system: SF-539
[41] = test system: NCI-H226
[42] = test system: RPMI-8226
[43] = test system: IGROV-1
[44] = test system: OVCAR-3
[45] = test system: SNB-19
[46] = test system: UACC-257
[47] = test system: HCT-15
[48] = test system: SF-268
[49] = test system: OVCAR-5
[50] = test system: OVCAR-4
[51] = test system: RXF 393
[52] = test system: HT-29
[53] = test system: M14
[54] = test system: SNB-75
[55] = test system: Malme-3M
[56] = test system: SK-MEL-28
[57] = test system: HL-60
[58] = test system: A498

Measured: GI50

O=C1C(NS(=O)(=O)c2ccccc2)=C(n2cnc3ccccc32)C(=O)c2ccccc21
inactive: [1] 58.2 µM | [2] > 100 µM | [3] > 100 µM | [4] > 100 µM | [5] > 100 µM | [7] > 100 µM | [8] 89.3 µM | [9] > 100 µM | [10] 57.4 µM | [11] > 100 µM | [12] > 100 µM | [13] 41.4 µM | [14] 48.9 µM | [15] > 100 µM | [16] > 100 µM | [17] > 100 µM | [18] > 100 µM | [19] > 100 µM | [20] > 100 µM | [21] > 100 µM | [22] > 100 µM | [23] 47.3 µM | [24] 85.9 µM | [25] > 100 µM | [26] > 100 µM | [27] 4.66 µM | [28] > 100 µM | [29] 60.4 µM | [30] 48.6 µM | [31] 32.4 µM | [32] > 100 µM | [33] > 100 µM | [34] 75.3 µM | [35] > 100 µM | [36] 46.1 µM | [37] > 100 µM | [38] > 100 µM | [39] > 100 µM | [40] > 100 µM | [41] > 100 µM | [42] 50.5 µM | [43] 52.8 µM | [44] > 100 µM | [45] 38.4 µM | [46] > 100 µM | [48] 86.3 µM | [49] > 100 µM | [50] 34.5 µM | [51] 16 µM | [52] > 100 µM | [53] > 100 µM | [54] 30.3 µM | [55] > 100 µM | [56] > 100 µM | [57] > 100 µM
active: [6] 187 nM
> 100 µM: [47]

O=C(O)c1ccccc1/N=N\c1c(O)c(S(=O)(=O)O)cc2cc(S(=O)(=O)O)ccc12
active: [6] 23.1 nM | [7] 1.06 µM | [27] 0.201 µM | [41] 0.0239 µM | [50] 0.0962 µM | [55] 0.0711 µM | [57] < 0.01 µM
inactive: [2] 1.85 µM | [3] 2.41 µM | [4] 1.63 µM | [12] 2.65 µM | [16] > 100 µM | [18] 1.82 µM | [21] > 100 µM | [25] 4.72 µM | [30] 1.97 µM | [35] 1.2 µM | [36] 1.48 µM | [37] > 100 µM | [58] > 100 µM | [39] > 100 µM | [42] 1.35 µM | [45] 2.81 µM | [48] 1.8 µM | [53] 3.83 µM

COC(C)(C)C1(O)CCC(C)CC1=O (stereo not given)
inactive: [3] > 100 µM | [5] > 100 µM | [9] > 100 µM | [13] > 100 µM | [16] > 100 µM | [17] > 100 µM | [19] > 100 µM | [25] > 100 µM | [26] > 100 µM | [27] > 100 µM | [29] > 100 µM | [30] > 100 µM | [32] > 100 µM | [34] > 100 µM | [35] > 100 µM | [36] > 100 µM | [37] > 100 µM | [43] > 100 µM | [44] > 100 µM | [45] > 100 µM | [51] > 100 µM | [52] > 100 µM | [57] 85.7 µM
